For 3 compounds, IC50 and inhibition results are on record in publication PMC7303061, “Alternaria toxins as casein kinase 2 inhibitors and possible consequences for estrogenicity: a hybrid in silico/in vitro study” (Archives of Toxicology, 2020).

The target in assay [1] is T1, casein kinase 2 (CK2α1) (Homo sapiens, UniProt P68400).
T1 construct: gene CSNK2A1; recombinant CK2α1
The assay can be described thus: cell-free ADP-Glo kinase assay with recombinant CK2α[…] and casein, […] ATP. The assay is classed as biochemical. For orientation: ADP-Glo first removes unused ATP, then detects ADP through luciferase.

Assay [2] has as its target T1, casein kinase 2 (CK2α1). The assay can be described thus: cell-free ADP-Glo kinase assay, single concentration ([…]) positive control. The class given is biochemical.

Broadly, the IC50 is the concentration that inhibits the measured activity by half. Usually inhibition stands for the change of the read-out against control, counted positive when it falls. Low readings indicate a weak effect, high ones a strong effect.

Read-outs that look alike come from different tables or passages of the source.

T1 sequence (P68400 whole entry): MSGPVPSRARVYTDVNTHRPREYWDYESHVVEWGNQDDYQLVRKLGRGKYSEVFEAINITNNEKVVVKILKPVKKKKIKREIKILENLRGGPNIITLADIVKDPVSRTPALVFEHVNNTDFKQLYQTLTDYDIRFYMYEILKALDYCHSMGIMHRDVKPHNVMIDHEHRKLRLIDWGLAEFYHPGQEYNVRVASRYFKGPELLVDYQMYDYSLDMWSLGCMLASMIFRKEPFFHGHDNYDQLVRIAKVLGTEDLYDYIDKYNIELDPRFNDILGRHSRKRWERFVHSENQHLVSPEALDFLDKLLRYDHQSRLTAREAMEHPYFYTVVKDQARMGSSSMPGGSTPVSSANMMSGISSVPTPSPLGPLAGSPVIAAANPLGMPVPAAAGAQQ

Take `Cc1cc(O)cc2oc(=O)c3c(O)cc(O)cc3c12` [AOH, alternariol]: the IC50 at casein kinase 2 (CK2α1) [1] turned out to be 0.707 µM.
`O=C1CC[C@]2(O)c3c(ccc(O)c31)-c1ccc(O)c3c1C2[C@H]1O[C@H]1C3=O` (stereo partly drawn) [ATX-II, altertoxin II]: the IC50 on casein kinase 2 (CK2α1) [1] (read-out: IC50) amounted to 5.1 µM.
On to `O=c1c(O)c(-c2ccc(O)c(O)c2)oc2cc(O)cc(O)c12` [QUE, quercetin], for which 10 µM produced 94% inhibition against casein kinase 2 (CK2α1) [2].
